Publication PMC6257776, “Synthesis and Antitumor Activity of Diterpenylhydroquinone Derivatives of Natural Ent-Labdanes” (Molecules, 2010)

Experiments:
[1] = system: MCF-7 breast carcinoma cells; assay: SRB cell growth inhibition assay, MCF-7; type: cell-based, human; conditions: for IC50: Homo sapiens, MCF7, MCF-7 cells, 72 h exposure, SRB, read-out: Cytotoxicity IC50, MCF-7; for cytotoxic bioactivity against MCF-7 (in words): MCF-7 breast carcinoma
Procedure: (§1) The antitumor cytotoxicity of the compounds was evaluated in vitro against […] different cancer cell lines: PC-3 and DU-145 human prostate cancer, MCF-7 and MDA-MB-231 breast carcinoma and one non-tumoral cell line, dermal human fibroblasts (DHF). A conventional colorimetric assay was set up to estimate the IC50 values, which represent the concentration of a drug that is required for 50% inhibition in vitro after 72 h of continuous exposure to the test compounds. Four serial dilutions (from 12.5 to 100 µM) for each sample were evaluated in triplicate. The results obtained from these assays are shown in Table 1 and the following general observations can be made as a result: the natural ent-labdanes derivatives 3-5 (IC50 > 100) were the least cytotoxic of the series.
(§2) The colorimetric assay using sulforhodamine B (SRB) was realized following an adaptation of the described method by Skehan et al.. Cells were seeded in 96-well microtiter plates, at5 × 10^3 cells per well in aliquots of 100 µL of DMEM/F-12 medium, and they were allowed to attach to the plate surface by growing in drug-free medium for 18 h. Afterward, compounds samples were added in aliquots (dissolved in EtOH/H2O) to achieve a final concentration of 100, 50, 25 12.5 µM. After 72 h exposure, the in vitro cytotoxicity was measured by the SRB dye assay. Cells were fixed by adding cold 50% (wt/vol) trichloroacetic acid (TCA, 25 µL) and incubating for 60 min at 4 °C. Plates were washed with deionized water and dried; SRB solution (0.1% wt/vol in 1% acetic acid, 50 µL) was added to each microtiter well and incubated for 30 min at room temperature. Unbound SRB is removed by washing with 1% acetic acid. Plates were air-dried and bound stain was solubilized with Tris base (100 µL, 10 mM). Optical densities were read on an automated spectrophotometer plate reader at a single wavelength of 540 nm. Values shown are the % viability vs. ctrl + SD, n = four independent experiments in triplicate.

[2] = system: PC-3 human prostate cancer cells; assay: SRB cell growth inhibition assay, PC-3; type: cell-based; conditions: PC-3 cells, 72 h exposure, read-out: Cytotoxicity IC50, PC-3
Procedure: as §1, §2

[3] = system: MDA-MB-231 breast carcinoma cells; assay: SRB cell growth inhibition assay, MDA-MB-231; type: cell-based, human; conditions: for IC50: Homo sapiens, MDA-MB-231 cells, 72 h exposure, SRB, read-out: Cytotoxicity IC50, MDA-MB-231; for cytotoxic bioactivity against MDA-MB-231 (in words): MDA-MB-231 breast carcinoma
Procedure: as §1, §2

[4] = SRB cell growth inhibition assay, DHF (non-tumoral); type: cell-based; conditions: dermal human fibroblasts (DHF), non-tumoral cells, 72 h exposure, read-out: Cytotoxicity IC50, DHF
Procedure: as §1, §2

[5] = system: DU-145 human prostate cancer cells; assay: SRB cell growth inhibition assay, DU-145; type: cell-based; conditions: DU-145 cells, 72 h exposure, read-out: Cytotoxicity IC50, DU-145
Procedure: as §1, §2

| SMILES | IC50 [1] | IC50 [2] | IC50 [3] | IC50 at 72 h [4] | IC50 [5] | cytotoxic bioactivity against MCF-7 (in words) [1] | cytotoxic bioactivity against MDA-MB-231 (in words) [3] |
| --- | --- | --- | --- | --- | --- | --- | --- |
| C=C1CC[C@@H]2C(C)(C)C[C@@H](OC(C)=O)C[C@@]2(C)[C@@H]1CC/C(C)=C/CO [Compound 3] | > 100 µM | > 100 µM | > 100 µM | > 100 µM | > 100 µM |  |  |
| C=C1CC[C@@H]2C(C)(C)C[C@@H](O)C[C@@]2(C)[C@@H]1CC/C(C)=C/CO [Compound 4] | 90.6 µM | > 100 µM | > 100 µM | > 100 µM | > 100 µM |  |  |
| C=C1CC[C@@H]2C(C)(C)C[C@@H](OC(C)=O)C[C@@]2(C)[C@@H]1CC/C(C)=C\CO [Compound 5] | > 100 µM | > 100 µM | > 100 µM | > 100 µM | > 100 µM |  |  |
| C=C1CC[C@@H]2C(C)(C)C[C@@H](O)C[C@@]2(C)[C@@H]1CC/C(C)=C\CO [Compound 6] | 74.9 µM | > 100 µM | 96 µM | > 100 µM | 96.2 µM |  |  |
| C=C1CC[C@@H]2C(C)(C)C[C@@H](OC(C)=O)C[C@@]2(C)[C@@H]1CC/C(C)=C/Cc1cc(O)ccc1O [Compound 7] | 23.9 µM | 21.4 µM | 75.9 µM | > 100 µM | 44.6 µM |  |  |
| C=C1CC[C@@H]2C(C)(C)C[C@@H](O)C[C@@]2(C)[C@@H]1CC/C(C)=C/Cc1cc(O)ccc1O [Compound 8] | 34 µM | 28.2 µM | 61.8 µM | > 100 µM | 37.6 µM |  |  |
| C=C1CC[C@@H]2C(C)(C)C[C@@H](OC(C)=O)C[C@@]2(C)[C@@H]1CC/C(C)=C/Cc1cc(OC(C)=O)ccc1OC(C)=O [Compound 9, 2β-Acetoxy-15-phenyl-(22,25-acetoxy)-ent-labda-8(17),13(E)-diene] | 41.1 µM | 64.3 µM | 33.8 µM | 72.3 µM | 62.9 µM | showed cytotoxic bioactivity | showed cytotoxic bioactivity |
| C=C1CCC2C(C)(C)CC(O)CC2(C)C1CCC(C)=CCc1c(OC)cc(OC)cc1OC (stereo not drawn) [Compound 10, 2β-Hydroxy-15-phenyl-(22,24,26-trimethoxy)-ent-labda-8(17),13(E)-diene] | 45.6 µM | 91.2 µM | 85.9 µM | > 100 µM | > 100 µM | showed cytotoxic bioactivity | showed cytotoxic bioactivity |
| C=C1CC[C@@H]2C(C)(C)C[C@@H](O)C[C@@]2(C)[C@@H]1CC/C(C)=C/COC(C)=O [Compound 11, 2β-Hydroxy-15-acetoxy-ent-labda-8(17),13(E)-diene] | 86.9 µM | 35.6 µM | > 100 µM | > 100 µM | > 100 µM |  |  |
